Source: ChEMBL document CHEMBL1201862, “PubChem BioAssay data set” (2004)
Activity calls are given as the source filed them. *1 amine or outer side, *2 acyl side, *3 side chain or, on linkers, in order; H or OH if unused. Where a SMILES comes first, the peptide text is derived from it. [ ]: non-standard residue; d: D form. X2 = CCC[C@@H](N[*:1])[C@H](C)C(=O)O[C@H](C(=O)[*:2])[C@@H](C)CC; X1 = CC(N[*:1])C(=O)C(C)(C)C(=O)[*:2]; NMeY = CN[C@@H](Cc1ccc(O)cc1)C(=O)O; NMeL = CN[C@@H](CC(C)C)C(=O)O; NMeV = CN[C@H](C(=O)O)C(C)C; NMeA = CN[C@@H](C)C(=O)O

Experiments:
[1] = target: T1, Short transient receptor potential channel 4 (Mus musculus, UniProt Q9QUQ5); experiment: block of DAMGO-driven TRPC4 calcium entry – cell-based, HEK293 TRPC4/mu-opioid, Fluo-4 calcium, dose response (AID 434942); format: functional;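 also: potency of inhibitors blocking the TRPC4 calcium response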
T1 sequence (Q9QUQ5 whole entry): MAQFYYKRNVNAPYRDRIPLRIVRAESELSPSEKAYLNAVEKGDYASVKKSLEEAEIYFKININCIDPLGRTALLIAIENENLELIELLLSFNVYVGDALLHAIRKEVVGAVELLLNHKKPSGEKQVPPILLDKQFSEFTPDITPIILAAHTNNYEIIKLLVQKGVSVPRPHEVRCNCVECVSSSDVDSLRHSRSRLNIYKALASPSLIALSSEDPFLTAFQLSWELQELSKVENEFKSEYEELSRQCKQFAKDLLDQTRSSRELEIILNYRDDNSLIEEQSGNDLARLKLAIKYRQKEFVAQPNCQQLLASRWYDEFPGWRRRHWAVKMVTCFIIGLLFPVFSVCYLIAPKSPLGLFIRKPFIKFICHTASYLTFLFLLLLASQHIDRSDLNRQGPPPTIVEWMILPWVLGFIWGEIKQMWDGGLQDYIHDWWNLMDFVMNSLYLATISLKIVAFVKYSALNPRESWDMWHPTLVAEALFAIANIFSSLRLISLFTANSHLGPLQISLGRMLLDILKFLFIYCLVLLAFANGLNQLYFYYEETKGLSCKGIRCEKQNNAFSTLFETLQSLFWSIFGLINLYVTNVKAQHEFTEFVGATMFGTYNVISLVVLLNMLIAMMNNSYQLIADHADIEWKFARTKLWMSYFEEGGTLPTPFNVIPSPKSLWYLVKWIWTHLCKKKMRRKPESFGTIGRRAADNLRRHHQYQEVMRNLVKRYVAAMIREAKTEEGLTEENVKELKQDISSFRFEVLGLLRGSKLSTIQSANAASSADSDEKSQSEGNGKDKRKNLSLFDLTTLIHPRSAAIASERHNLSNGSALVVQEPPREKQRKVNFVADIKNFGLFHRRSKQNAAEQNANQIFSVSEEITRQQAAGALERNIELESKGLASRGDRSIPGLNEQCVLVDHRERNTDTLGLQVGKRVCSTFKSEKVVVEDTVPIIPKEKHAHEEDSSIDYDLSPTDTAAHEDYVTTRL

BJ [2] = experiment: BJ-TERT fibroblast viability loss – cell-based, RAS-independent, luminescence, dose response (AID 1933); format: functional; details: Homo sapiens
BJ [3] = experiment: cells; format: functional, cell-based; details: Homo sapiens
BJ [4] = experiment: BJ-TERT-LT-ST fibroblast viability loss – cell-based, RAS-independent, luminescence, dose response (AID 1935); format: functional; details: Homo sapiens;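 also: BJ fibroblasts immortalized with TERT plus LT and ST oncogenes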
[5] = DRD fibroblast viability loss – cell-based, non-viral oncogenic, luminescence, dose response (AID 1934); format: functional; details: Homo sapiens
[6] = HEK-293T viability loss after treatment – luminescence, T-cell screen hits, cytotoxicity control for TCR NF-kB inhibitor project, dose response (AID 489026); format: functional, cell-based;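 also: cells exposed to compound about 14 hours before the viability readout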
[7] = target: T2, Microphthalmia-associated transcription factor (Homo sapiens, UniProt O75030); experiment: reducers of TRPM1 reporter luminescence, concentration series – cell-based, SK-MEL-5, cherry-picked, set 3, MITF inhibitor project, dose response (AID 493073); format: functional;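 also: SK-MEL-5 melanoma cells with luciferase driven by the MITF target TRPM1 promoter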
T2 sequence (O75030 whole entry): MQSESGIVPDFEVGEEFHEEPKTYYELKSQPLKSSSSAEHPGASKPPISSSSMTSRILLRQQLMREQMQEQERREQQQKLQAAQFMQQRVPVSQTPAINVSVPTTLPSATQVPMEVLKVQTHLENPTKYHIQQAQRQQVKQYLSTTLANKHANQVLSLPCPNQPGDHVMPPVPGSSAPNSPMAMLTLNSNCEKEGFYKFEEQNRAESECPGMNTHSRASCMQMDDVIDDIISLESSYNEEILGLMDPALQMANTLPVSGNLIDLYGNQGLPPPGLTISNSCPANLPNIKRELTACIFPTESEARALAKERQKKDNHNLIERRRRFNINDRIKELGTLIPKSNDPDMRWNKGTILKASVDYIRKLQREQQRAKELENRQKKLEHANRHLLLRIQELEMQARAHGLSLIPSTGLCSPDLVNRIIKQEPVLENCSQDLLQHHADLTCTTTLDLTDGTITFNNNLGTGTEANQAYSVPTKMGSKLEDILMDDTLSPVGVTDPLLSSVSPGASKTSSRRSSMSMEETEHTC

[8] = target: T3, DNA repair protein RAD52 homolog (Homo sapiens, UniProt P43351); format: functional, biochemical
T3 sequence (P43351 whole entry): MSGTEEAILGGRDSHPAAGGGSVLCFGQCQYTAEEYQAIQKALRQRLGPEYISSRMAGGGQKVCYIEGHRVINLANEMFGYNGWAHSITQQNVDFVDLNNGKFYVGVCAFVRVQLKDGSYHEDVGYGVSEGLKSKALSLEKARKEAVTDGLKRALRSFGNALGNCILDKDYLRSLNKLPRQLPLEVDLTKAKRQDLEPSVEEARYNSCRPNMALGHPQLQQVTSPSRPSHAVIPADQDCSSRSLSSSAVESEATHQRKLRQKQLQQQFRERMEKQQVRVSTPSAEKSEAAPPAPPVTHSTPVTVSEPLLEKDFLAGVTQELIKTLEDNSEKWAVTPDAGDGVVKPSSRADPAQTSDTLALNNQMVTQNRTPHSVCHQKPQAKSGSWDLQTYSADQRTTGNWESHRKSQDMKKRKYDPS

Vero [9] = experiment: cells; format: functional, cell-based; details: Chlorocebus sabaeus
Vero [10] = experiment: cells; format: functional; details: Chlorocebus sabaeus
[11] = target: T1, Short transient receptor potential channel 4; experiment: calcium entry via TRPC4 opening agents – cell-based, HEK293 TRPC4/mu-opioid, Fluo-4 calcium, dose response (AID 434937); format: functional
[12] = target: Voltage-dependent T-type calcium channel subunit alpha-1H (Homo sapiens, UniProt O95180); format: functional;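 also: channel activity triggered by adding a high calcium stimulation buffer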
[13] = target: T4, Rac GTPase-activating protein 1 (Homo sapiens, UniProt Q9H0H5); experiment: blockers of MgcRacGAP-driven Rac1 GTP hydrolysis – biochemical, ADP Hunter fluorescence, primary and confirmatory, confirmation (AID 624330); format: functional
T4 sequence (Q9H0H5 whole entry): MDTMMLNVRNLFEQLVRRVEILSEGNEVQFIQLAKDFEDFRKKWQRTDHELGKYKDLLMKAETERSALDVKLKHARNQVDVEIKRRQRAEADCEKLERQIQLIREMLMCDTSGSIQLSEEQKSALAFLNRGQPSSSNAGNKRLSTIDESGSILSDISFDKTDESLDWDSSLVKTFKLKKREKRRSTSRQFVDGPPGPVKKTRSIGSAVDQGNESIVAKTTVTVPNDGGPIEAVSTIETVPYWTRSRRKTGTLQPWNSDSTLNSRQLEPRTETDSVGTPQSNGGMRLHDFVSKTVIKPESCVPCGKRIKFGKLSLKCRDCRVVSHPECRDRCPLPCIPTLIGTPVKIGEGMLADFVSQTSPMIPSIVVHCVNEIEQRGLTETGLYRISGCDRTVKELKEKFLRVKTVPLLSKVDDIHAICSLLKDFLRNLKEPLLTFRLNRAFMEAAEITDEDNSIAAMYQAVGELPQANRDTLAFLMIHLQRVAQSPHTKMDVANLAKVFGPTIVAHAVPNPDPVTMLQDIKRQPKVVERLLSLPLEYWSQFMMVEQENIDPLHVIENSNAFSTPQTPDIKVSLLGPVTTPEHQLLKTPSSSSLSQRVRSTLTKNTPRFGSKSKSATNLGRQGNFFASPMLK

[14] = microbe, parasite or virus in culture; format: functional; details: Mycobacterium tuberculosis
[15] = target: T5, Replicative DNA helicase DnaB (Mycobacterium tuberculosis, UniProt P9WMR3); experiment: DnaB intein splicing inhibitors, dose response, biochemical, cell-free fluorescence (AID 449749); format: functional
T5 sequence (P9WMR3 whole entry): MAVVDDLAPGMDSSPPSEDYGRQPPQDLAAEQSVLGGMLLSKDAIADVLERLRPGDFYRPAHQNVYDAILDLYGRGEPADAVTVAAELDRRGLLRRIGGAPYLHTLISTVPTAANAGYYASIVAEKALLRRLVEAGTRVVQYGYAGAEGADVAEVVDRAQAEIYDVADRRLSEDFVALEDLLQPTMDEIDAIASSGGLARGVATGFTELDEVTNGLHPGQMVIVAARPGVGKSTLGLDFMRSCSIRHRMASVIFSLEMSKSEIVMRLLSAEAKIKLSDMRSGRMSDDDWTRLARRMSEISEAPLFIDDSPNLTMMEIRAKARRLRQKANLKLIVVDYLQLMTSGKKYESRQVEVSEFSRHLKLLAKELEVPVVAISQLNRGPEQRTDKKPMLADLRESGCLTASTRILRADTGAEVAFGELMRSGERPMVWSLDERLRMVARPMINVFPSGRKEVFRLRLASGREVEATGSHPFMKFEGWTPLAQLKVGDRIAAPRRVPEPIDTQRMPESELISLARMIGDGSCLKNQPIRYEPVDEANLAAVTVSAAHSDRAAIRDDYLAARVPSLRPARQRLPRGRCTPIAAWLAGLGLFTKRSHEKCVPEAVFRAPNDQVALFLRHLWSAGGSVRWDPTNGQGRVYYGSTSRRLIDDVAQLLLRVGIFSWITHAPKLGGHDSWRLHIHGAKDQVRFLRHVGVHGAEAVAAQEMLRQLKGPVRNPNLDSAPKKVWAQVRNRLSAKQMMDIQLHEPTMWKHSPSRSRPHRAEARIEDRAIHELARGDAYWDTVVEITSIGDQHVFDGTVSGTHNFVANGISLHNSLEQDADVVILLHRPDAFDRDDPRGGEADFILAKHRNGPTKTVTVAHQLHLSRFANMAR

Protein RecA = target: T6, Protein RecA (Mycobacterium tuberculosis, UniProt P9WHJ3); experiment: Fluorescence Cell-Free Homogeneous Dose Retest to Identify Inhibitors of RecA-Intein Splicing Activity. [Related pubchem assays (depositor defined):AID2097, AID2223, AID489010, AID492950]; format: functional
T6 sequence (P9WHJ3 whole entry): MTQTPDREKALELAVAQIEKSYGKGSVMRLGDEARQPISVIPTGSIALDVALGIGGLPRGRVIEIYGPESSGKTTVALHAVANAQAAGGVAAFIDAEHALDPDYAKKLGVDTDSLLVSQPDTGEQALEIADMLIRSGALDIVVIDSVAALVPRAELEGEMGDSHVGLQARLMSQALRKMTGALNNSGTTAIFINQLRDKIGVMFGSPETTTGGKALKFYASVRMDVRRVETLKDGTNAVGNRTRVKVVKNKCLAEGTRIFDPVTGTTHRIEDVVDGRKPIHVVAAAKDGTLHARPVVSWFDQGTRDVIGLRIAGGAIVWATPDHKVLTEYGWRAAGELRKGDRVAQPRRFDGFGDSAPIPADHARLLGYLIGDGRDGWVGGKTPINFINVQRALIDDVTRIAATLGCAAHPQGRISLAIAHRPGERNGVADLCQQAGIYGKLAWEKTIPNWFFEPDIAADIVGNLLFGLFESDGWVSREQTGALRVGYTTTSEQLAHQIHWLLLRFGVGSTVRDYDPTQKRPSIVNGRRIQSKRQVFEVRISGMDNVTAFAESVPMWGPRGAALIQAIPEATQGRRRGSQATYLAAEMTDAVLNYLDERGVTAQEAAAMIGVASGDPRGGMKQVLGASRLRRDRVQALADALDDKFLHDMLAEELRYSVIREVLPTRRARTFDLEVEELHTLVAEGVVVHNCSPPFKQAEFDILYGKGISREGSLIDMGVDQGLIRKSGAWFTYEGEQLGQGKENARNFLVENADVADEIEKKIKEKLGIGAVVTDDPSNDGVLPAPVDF

Sequence of Voltage-dependent T-type calcium channel subunit alpha-1H (O95180 whole entry): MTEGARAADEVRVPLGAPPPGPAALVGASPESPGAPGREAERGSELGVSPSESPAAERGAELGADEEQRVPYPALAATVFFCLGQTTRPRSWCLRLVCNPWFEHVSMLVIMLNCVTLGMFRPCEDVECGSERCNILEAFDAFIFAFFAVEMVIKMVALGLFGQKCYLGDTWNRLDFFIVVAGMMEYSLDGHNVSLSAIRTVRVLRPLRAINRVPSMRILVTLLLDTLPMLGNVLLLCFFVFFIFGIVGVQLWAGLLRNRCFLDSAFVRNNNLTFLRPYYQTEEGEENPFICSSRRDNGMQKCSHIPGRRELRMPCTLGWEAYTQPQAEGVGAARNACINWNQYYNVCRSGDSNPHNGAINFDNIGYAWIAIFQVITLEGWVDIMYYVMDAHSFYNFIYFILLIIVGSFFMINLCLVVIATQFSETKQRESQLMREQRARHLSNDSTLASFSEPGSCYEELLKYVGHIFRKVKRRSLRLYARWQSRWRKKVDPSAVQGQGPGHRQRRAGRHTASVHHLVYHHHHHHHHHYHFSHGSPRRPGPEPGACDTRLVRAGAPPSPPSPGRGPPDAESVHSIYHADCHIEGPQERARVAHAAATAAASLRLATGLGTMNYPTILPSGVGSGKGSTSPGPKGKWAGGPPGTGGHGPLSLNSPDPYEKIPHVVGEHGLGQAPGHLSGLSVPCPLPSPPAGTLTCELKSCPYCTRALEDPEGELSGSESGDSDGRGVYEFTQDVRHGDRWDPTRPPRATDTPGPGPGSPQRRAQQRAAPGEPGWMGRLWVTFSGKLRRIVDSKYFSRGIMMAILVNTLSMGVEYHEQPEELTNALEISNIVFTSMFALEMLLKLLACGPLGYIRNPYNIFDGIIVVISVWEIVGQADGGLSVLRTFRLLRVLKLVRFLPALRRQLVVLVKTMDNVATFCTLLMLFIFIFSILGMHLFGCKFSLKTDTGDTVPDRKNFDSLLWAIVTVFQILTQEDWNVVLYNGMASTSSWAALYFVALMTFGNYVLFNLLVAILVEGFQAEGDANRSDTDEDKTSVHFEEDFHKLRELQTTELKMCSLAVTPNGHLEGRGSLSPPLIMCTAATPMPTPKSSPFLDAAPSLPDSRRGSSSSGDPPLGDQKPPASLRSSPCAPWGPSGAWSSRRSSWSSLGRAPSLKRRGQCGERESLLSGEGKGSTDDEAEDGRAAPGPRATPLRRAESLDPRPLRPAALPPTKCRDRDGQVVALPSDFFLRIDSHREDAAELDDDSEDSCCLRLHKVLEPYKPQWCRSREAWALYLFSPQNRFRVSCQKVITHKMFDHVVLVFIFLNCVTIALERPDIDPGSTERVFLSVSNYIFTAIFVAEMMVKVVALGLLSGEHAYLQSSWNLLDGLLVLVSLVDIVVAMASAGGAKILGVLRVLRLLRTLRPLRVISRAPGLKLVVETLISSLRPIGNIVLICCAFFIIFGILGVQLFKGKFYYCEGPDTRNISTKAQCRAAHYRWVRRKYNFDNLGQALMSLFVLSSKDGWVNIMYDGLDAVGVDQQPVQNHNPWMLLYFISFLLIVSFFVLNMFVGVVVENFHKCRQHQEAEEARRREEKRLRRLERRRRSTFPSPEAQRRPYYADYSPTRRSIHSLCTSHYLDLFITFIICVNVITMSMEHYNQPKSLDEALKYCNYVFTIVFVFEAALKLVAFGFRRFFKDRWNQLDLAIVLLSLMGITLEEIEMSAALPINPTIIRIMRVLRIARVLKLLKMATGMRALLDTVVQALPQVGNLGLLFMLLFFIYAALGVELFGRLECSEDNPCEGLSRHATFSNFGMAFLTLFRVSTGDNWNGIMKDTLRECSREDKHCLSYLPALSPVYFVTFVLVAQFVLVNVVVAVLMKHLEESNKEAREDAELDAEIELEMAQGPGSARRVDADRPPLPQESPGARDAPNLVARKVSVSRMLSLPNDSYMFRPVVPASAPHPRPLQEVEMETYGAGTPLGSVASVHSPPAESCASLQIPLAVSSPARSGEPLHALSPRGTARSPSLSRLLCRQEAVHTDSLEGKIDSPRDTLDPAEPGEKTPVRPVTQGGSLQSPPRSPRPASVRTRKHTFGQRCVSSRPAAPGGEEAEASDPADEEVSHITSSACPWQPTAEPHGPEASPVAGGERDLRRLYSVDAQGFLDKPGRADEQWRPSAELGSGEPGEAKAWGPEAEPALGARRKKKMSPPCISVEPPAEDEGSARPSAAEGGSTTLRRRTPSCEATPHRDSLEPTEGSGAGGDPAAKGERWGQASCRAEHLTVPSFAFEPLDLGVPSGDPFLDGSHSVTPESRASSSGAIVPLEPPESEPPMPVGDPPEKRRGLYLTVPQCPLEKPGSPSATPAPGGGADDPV

CCCN(c1nc(C)cc(OC)n1)S(=O)(=O)c1ccccc1
EC50 [1]: 2.11 µM (active)

O=C(NC1CCCCC1)N1CCN(C(c2ccccc2)c2ccccc2)CC1
EC50 [1]: 1.5 µM (active)

COC(=O)c1[nH]c2c(c1C)C(=O)CC(c1cccc(OC)c1)C2 (stereo not given)
EC50 (BJ [2]): 0.773 µM (active)
EC50 (BJ [3]): 1.62 µM (active)
EC50 (BJ [4]): 0.665 µM (active)
EC50 [5]: 0.619 µM (active)
IC50 [6]: > 80 µM (inactive)

CCCN(CCC)C1=CC(=[N+]2CCCC2)CC(C)(C)C1
IC50 [6]: > 80 µM (inactive)
AC50 [7]: 2.02 µM (active)

CCOc1ccc2c(C)nc(NC3=NC(C)=CC(C)(C)N3)nc2c1
EC50 [1]: 1.68 µM (active)
AC50 [8]: 4.06 µM (active)

c1ccc2c(N3CCCCC3)nc(N3CCOCC3)nc2c1
EC50 [1]: 1.88 µM (active)

CCC[C@H]1NC(=O)[C@H](C)N(C)C(=O)C(C)(C)C(=O)C(C)NC(=O)[C@H](Cc2ccc(OC)cc2)N(C)C(=O)[C@H](C(C)C)N(C)C(=O)CNC(=O)[C@H](CC(C)C)N(C)C(=O)CNC(=O)[C@H]([C@@H](C)CC)OC(=O)[C@H]1C (stereo not given in full) (cyclo(G[NMeL]G[NMeV][NMeY](Me)[X1][NMeA][X2]))
IC50 [6]: > 80 µM (inactive)

CCOc1ccccc1N(CC)C(=O)c1nn(C)c2c1CSc1ccccc1-2
EC50 [1]: 2.99 µM (active)

CC(=O)Nc1ccc(S(=O)(=O)N2CCSc3ccccc32)cc1
IC50 [6]: > 80 µM (inactive)

Cc1cc(N2CCN(Cc3nc(-c4ccc(Cl)cc4)oc3C)CC2)cc(C)n1
IC50 (Vero [9]): 23.7 µM (active)
CC50 (Vero [10]): > 25 µM (active)

COc1cccc(-c2nn(-c3ccccc3)cc2CN(C)C(C)c2ccncn2)c1 (stereo not given)
EC50 [1]: 2.99 µM (active)
EC50 [11]: 6.68 µM (active)

CCCCN(C)C(=O)C1CCN(Cc2ccc(OCc3ccccc3)cc2)CC1
EC50 [12]: 7.3 µM (active)
IC50 [13]: 204 µM (active)

Cc1ccc2c(c1)Oc1ccc(NC(=O)CCl)cc1C(=O)N2
EC50 (BJ [2]): 2.99 µM (active)
EC50 (BJ [3]): 2.88 µM (inconclusive)
CC50 [14]: 2.96 µM (active)
EC50 (BJ [4]): 4.2 µM (inconclusive)
EC50 [5]: 6.28 µM (active)
IC50 [6]: 17.3 µM (active)
AC50 [7]: 10.1 µM (active)
AC50 [15]: 15.6 µM (active)
EC50 (Protein RecA): 4.53 µM (active)
